Assay results reported in the supplement of paper PMC10307832.

Key:
Assay in all cases: relative viability (nuclei count vs DMSO), 5 days (fraction); higher = more cells survive
BAM7 = compound: CCOC1=CC=CC=C1N=NC2=C(NN(C2=O)C3=NC(=CS3)C4=CC=CC=C4)C [BAM7]
Method in brief: (§1)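 Following overnight incubation at 37 °C, lung cancer cell lines in 1536-well plates were pinned with five library-drug doses (not always all listed) in √10 steps on vehicle-anchored plates. The cells then spent 5 days without medium change before a combined fix, permeabilisation and Hoechst stain, 4× imaging and MetaXpress nuclear counts. Viability is the treated-to-vehicle ratio of nuclei, taken as the median across plates. Only plates with control CV below 25% and at least one doubling passed.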

[1] = compound: CCn1c(-c2nonc2N)nc2c(C#CC(C)(C)O)ncc(OC[C@H]3CCCNC3)c21
Method in brief: as §1

BAM7 + Alpelisib = compound: CCOC1=CC=CC=C1N=NC2=C(NN(C2=O)C3=NC(=CS3)C4=CC=CC=C4)C [BAM7] + Cc1nc(NC(=O)N2CCC[C@H]2C(N)=O)sc1-c1ccnc(C(C)(C)C(F)(F)F)c1 [Alpelisib] (partner 2 µM)
Method in brief: (§2)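 Nuclei were stained with Hoechst during a one-step fixation (final 0.05% Triton X-100, 1% formaldehyde, 1 ug/ml Hoechst) carried out 5 days after dosing, then counted on 4× images. The cells, lung cancer lines in 1536-well plates, had been dosed by pin tool the day after seeding with one drug alone or a fixed anchor-drug dose plus five library-drug doses (not always all listed) in √10 steps. Relative viability is the nuclei count in treated wells divided by that in vehicle wells, and each value is the median of duplicate plates.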

[2] = compound: CCn1c(-c2nonc2N)nc2c(C#CC(C)(C)O)ncc(OC[C@H]3CCCNC3)c21 + Nc1nc2[nH]cc(CCc3ccc(C(=O)N[C@@H](CCC(=O)O)C(=O)O)cc3)c2c(=O)[nH]1 [Pemetrexed] (partner 0.2 µM)
Method in brief: as §2

Row | Cell Line | relative viability (BAM7; 0.5 µM) | relative viability (BAM7; 5 µM) | relative viability (BAM7; 15.81 µM) | relative viability (BAM7; 50 µM) | relative viability ([1]; 0.01 µM) | relative viability ([1]; 0.03162 µM) | relative viability ([1]; 0.1 µM) | relative viability ([1]; 0.3162 µM) | relative viability ([1]; 1 µM) | relative viability (BAM7 + Alpelisib; first compound 0.5 µM) | relative viability (BAM7 + Alpelisib; first compound 5 µM) | relative viability (BAM7 + Alpelisib; first compound 15.81 µM) | relative viability (BAM7 + Alpelisib; first compound 50 µM) | relative viability ([2]; first compound 0.01 µM) | relative viability ([2]; first compound 0.03162 µM) | relative viability ([2]; first compound 0.1 µM) | relative viability ([2]; first compound 0.3162 µM) | relative viability ([2]; first compound 1 µM)
1 | 201T | 0.918 | 0.865 | 0.793 | 0.861 | 0.95 | 0.987 | 0.959 | 0.952 | 0.986 | 1.05 | 1.05 | 0.825 | 1.01 | 0.321 | 0.317 | 0.343 | 0.333 | 0.311
2 | A549 | 1.01 | 1.07 | 0.948 | 1.03 | 0.934 | 0.995 | 0.996 | 0.896 | 0.951 | 0.872 | 0.722 | 0.846 | 0.845 |  |  |  |  | 
3 | A-427 | 1.05 | 1.08 | 1 | 1.09 | 0.994 | 1.06 | 0.918 | 0.965 | 1.08 | 0.687 | 1.16 | 1.11 | 1.06 | 0.925 | 0.999 | 0.876 | 0.91 | 1.08
4 | ABC-1 | 0.919 | 1.05 | 0.855 | 1.14 | 0.934 | 0.869 | 0.864 | 0.768 | 0.696 | 1.37 | 0.968 | 0.851 | 0.914 |  |  |  |  | 
5 | BEN | 1.04 | 1.05 | 1.11 | 0.981 | 0.988 | 1.03 | 0.735 | 0.935 | 0.962 | 1.11 | 0.948 | 0.903 | 1.08 | 0.779 | 0.821 | 0.605 | 0.753 | 0.773
6 | CAL-12T | 1.05 | 1.01 | 0.952 | 1.07 | 1.12 | 0.997 | 0.94 | 0.973 | 0.997 | 1.21 | 1.19 | 1 | 1.39 | 1.12 | 1.2 | 1.13 | 0.994 | 1.2
7 | COR-L23 | 0.982 | 1.07 | 0.966 | 1.01 | 0.991 | 1.04 | 0.986 | 0.973 | 1.04 | 0.804 | 0.714 | 0.685 | 0.752 | 0.212 | 0.207 | 0.202 | 0.187 | 0.196
8 | COR-L 105 | 0.833 | 0.909 | 0.95 | 1.14 | 0.919 | 0.961 | 1.01 | 0.843 | 1.04 | 1.01 | 1.06 | 0.967 | 0.981 | 1.18 | 1.21 | 1.18 | 1.23 | 1.3
9 | Calu-6 | 1.07 | 1.06 | 0.989 | 0.995 | 0.995 | 1.02 | 1.02 | 0.982 | 1.03 | 0.986 | 0.931 | 0.932 | 1.11 |  |  |  |  | 
10 | ChaGo-K-1 | 0.966 | 1.02 | 1.01 | 0.92 | 0.965 | 0.988 | 0.972 | 0.936 | 1 |  |  |  |  | 0.262 | 0.254 | 0.26 | 0.258 | 0.248
11 | EBC-1 | 1.05 | 1.04 | 0.952 | 1.06 | 0.986 | 0.963 | 0.973 | 0.883 | 0.757 | 1.05 | 0.805 | 0.814 | 0.953 |  |  |  |  | 
12 | IA-LM | 0.988 | 0.979 | 0.85 | 1.15 | 1.01 | 1.05 | 1.01 | 0.852 | 0.853 | 0.67 | 0.648 | 0.659 | 0.994 |  |  |  |  | 
13 | NCI-H522 | 0.981 | 1.07 | 1.01 | 1.07 | 1.07 | 1.03 | 0.972 | 0.826 | 1.02 |  |  |  |  | 0.989 | 1.02 | 0.915 | 0.95 | 1.17
14 | NCI-H727 | 0.962 | 0.811 | 0.881 | 0.937 | 1.02 | 0.866 | 0.871 | 0.848 | 0.973 | 0.599 | 0.576 | 0.57 | 0.663 |  |  |  |  | 
15 | NCI-H1299 | 1.01 | 1.06 | 1.01 | 1.01 | 0.984 | 1.05 | 1.01 | 1.01 | 1.04 | 1.06 | 1.1 | 1.03 | 0.992 |  |  |  |  | 
16 | NCI-H1648 | 0.786 | 0.754 | 0.608 | 0.708 | 0.922 | 0.869 | 0.775 | 0.851 | 0.973 |  |  |  |  | 0.62 | 0.756 | 0.759 | 0.664 | 0.723
17 | NCI-H1650 | 1.02 | 0.884 | 0.826 | 1.04 | 0.941 | 0.994 | 0.877 | 0.841 | 0.833 |  |  |  |  | 0.361 | 0.352 | 0.369 | 0.359 | 0.348
18 | NCI-H1703 | 1.04 | 0.989 | 0.808 | 1 | 0.828 | 0.973 | 0.839 | 0.788 | 0.612 | 0.316 | 0.322 | 0.291 | 0.36 |  |  |  |  | 
19 | NCI-H2342 | 0.851 | 0.994 | 0.89 | 0.708 | 0.957 | 0.881 | 0.99 | 0.91 | 0.964 |  |  |  |  | 0.751 | 0.73 | 0.767 | 0.754 | 0.8
20 | SW 900 | 0.781 | 0.826 | 0.708 | 1.03 | 0.796 | 0.73 | 0.76 | 0.822 | 0.892 |  |  |  |  | 0.488 | 0.502 | 0.465 | 0.385 | 0.499
